Our source for the Kd and IC50 values is patent US5834458A, “Heterocyclic compounds and their use” (Eli Lilly and Company, priority 1996, dated 1998).

pIC50, pKd: −log10 of the molar value.

One assay has as its target muscarinic receptor in the CNS.
Assay: not given
The note with it: first of three sites (high affinity); read-out: affinity of site labeled by ^3 H-Oxo; cited from earlier work.
For `C[N+](C)(C)CC#CCN1CCCC1=O` [^3 H-Oxo, ^3 H-Oxotremorine-M], the pKd is 8.74.

The same assay, now with this note: second of three sites (medium affinity); read-out: affinity of site labeled by ^3 H-Oxo; cited from earlier work.
On to `C[N+](C)(C)CC#CCN1CCCC1=O` [^3 H-Oxo, ^3 H-Oxotremorine-M], for which the pKd was 7.70.

Still in this assay, the particulars now being: third of three sites; not determined under the present experimental conditions; read-out: affinity of site labeled by ^3 H-Oxo; cited from earlier work.
Turning to `C[N+](C)(C)CC#CCN1CCCC1=O` [^3 H-Oxo, ^3 H-Oxotremorine-M], the pKd was 5.52.

For a further assay, the target named is muscarinic acetylcholine receptors. The assay can be described thus: inhibition of specific binding of 3H-Oxotremorine-M (3H-Oxo) to rat cortex. Further details: species or system rat (male Wistar). As to conditions: 3H-Oxotremorine 1.0 nM, 30 min, 25° C., pH 7.4. The text has this: The pharmacological properties of the compounds of the invention can be illustrated by determining their capability to inhibit the specific binding of ^3 H-Oxotremorine-M (^3 H-Oxo). Birdsdall N. J. M., Hulme E. C., and Burgen A. S. V. (1980). "The Character of Muscarinic Receptors in Different Regions of the Rat Brain". Proc. Roy. Soc. London (Series B) 207,1.
^3 H-oxo labels muscarinic receptor in the CNS (with a preference for agonist domains of the receptors). Three different sites are labeled by ^3 H-Oxo. […] Using the present experimental conditions only the high and medium affinity sites are determined.
The inhibitory effects of compounds on ^3 H-oxo binding reflects the affinity for muscarinic acetylcholine receptors.
All preparations are performed at 0°-4° C. unless otherwise indicated. Fresh cortex (0.1-1 g) from male Wistar rats (150-250 g) is homogenized for 5-10 s in 10 mL […] Hepes pH: 7.4, with an Ultra-Turrax homogenizer. The homogenizer is rinsed with 10 mL of buffer and the combined suspension centrifuged for 15 min. at 40,000×g. The pellet is washed three times with buffer. In each step the pellet is homogenized as before in 2×10 mL of buffer and centrifuged for 10 min. at 40,000×g.
The final pellet is homogenized in 20 mM Hepes pH: 7.4 (100 mL per g of original tissue) and used for binding assay. Aliquots of 0.5 mL is added 25 μL of test solution and 25 μL of ^3 H-Oxotremorine (1.0 nM, final concentration) mixed and incubated for 30 min. at 25° C. Non-specific binding is determined in triplicate using arecoline (1 μg/mL, final concentration) as the test substance. After incubation samples are added 5 mL of ice-cold buffer and poured directly onto Whatman GF/C glass fiber filters under suction and immediately washed 2 times with 5 mL of ice-cold buffer. The amount of radioactivity on the filters are determined by conventional liquid scintillation counting. Specific binding is total binding minus non specific binding.
Test substances are dissolved in 10 mL water (if necessary heated on a steam-bath for less than 5 min.) at a concentration of 2.2 mg/mL. 25-75% inhibition of specific binding must be obtained before calculation of IC50. The test value will be given as IC50 (the concentration (nM) of the test substance which inhibits the specific binding of ^3 H-oxo by 50%). IC50 =(applied test substance concentration) x([…])nM where Co is specific binding in control assays and Cx is the specific binding in the test assay. (The calculations assume normal mass-action kinetics).
As usually defined, the pIC50 is the negative decadic logarithm of the IC50, by convention in mol/L. `CCCCCCOc1nsnc1C1CC2CCC1N(C)C2` (single isomer, unassigned) [Compound 7, ENDO 2-Aza-6-(4-hexyloxy-1,2,5-thiadiaz-3-yl)-2-methyl-bicyclo[2.2.2]octane] had a pIC50 of 8.32.
Same read-out and setting: next, `CCCCCCOc1nsnc1C1CC2CCC1N(C)C2` (single isomer, unassigned) [Compound 8, EXO 2-Aza-6-(4-hexyloxy-1,2,5-thiadiaz-3-yl)-2-methyl-bicyclo[2.2.2]octane]: 6.56; `CC(C)CCCSc1nsnc1C1CC2CCC1NC2` (stereo not drawn) [Compound 17, EXO 2-Aza-6-(4-((4-methylpentyl)thio)-1,2,5-thiadiaz-3-yl)-bicyclo[2.2.2]octane]: 6.21; `CC(C)CCCSc1nsnc1C1CC2CCC1NC2` (stereo not drawn) [Compound 18, ENDO 2-Aza-6-(4-((4-methylpentyl)thio)-1,2,5-thiadiaz-3-yl)-bicyclo[2.2.2]octane]: 7.77.
Same read-out and setting: with `FC(F)(F)CCCSc1nsnc1C1CC2CCC1NC2` (stereo not drawn) [Compound 20, ENDO 2-Aza-6-(4-((4,4,4-trifluorobutyl)thio)-1,2,5-thiadiaz-3-yl)-bicyclo[2.2.2]octane] the figure was 8.32; with `FC(F)(F)c1ccc(CSc2nsnc2C2CC3CCC2NC3)cc1` (stereo not drawn) [Compound 22, EXO 2-Aza-6-(4-(((4-trifluoromethyl)phenyl)methylthio)-1,2,5-thiadiaz-3-yl)-bicyclo[2.2.2]octane], 6.17.
On the same count and under the same terms, next, `N#Cc1ccc(CSc2nsnc2C2CC3CCC2NC3)s1` (stereo not drawn) [Compound 25, ENDO 2-Aza-6-(4-((5-cyanothien-2-yl)methylthio)-1,2,5-thiadiaz-3-yl)-bicyclo[2.2.2]octane]: 8.27.
`N#Cc1ccc(CSc2nsnc2C2CC3CCC2NC3)s1` (stereo not drawn) [Compound 26, EXO 2-Aza-6-(4-((5-cyanothien-2-yl)methylthio)-1,2,5-thiadiaz-3-yl)-bicyclo[2.2.2]octane]: the pIC50 is 7.51.
Same read-out and setting: next, `CCCCCCSc1nsnc1C1CC2CCC1NC2` (stereo not drawn) [Compound 27, EXO 2-Aza-6-(4-hexylthio-1,2,5-thiadiaz-3-yl)-bicyclo[2.2.2]octane]: 8.52; `CCCCCCSc1nsnc1C1CC2CCC1NC2` (stereo not drawn) [Compound 28, EXO 2-Aza-6-(4-hexylthio-1,2,5-thiadiaz-3-yl)-bicyclo[2.2.2]octane]: 7.07; `CCCCCOc1nsnc1C1CC2CCC1NC2` (stereo not drawn) [Compound 30, ENDO 2-aza-6-(4-pentoxy-1,2,5-thiadiaz-3-yl)-bicyclo[2.2.2]octane]: 8.23.
Turning to `CCCCCOc1nsnc1C1CC2CCC1NC2` (stereo not drawn) [Compound 31, EXO 2-aza-6-(4-pentoxy-1,2,5-thiadiaz-3-yl)-bicyclo[2.2.2]octane], the pIC50 was 6.79.
On the same count and under the same terms, with `FC(F)(F)c1ccc(COc2nsnc2C2CC3CCC2NC3)cc1` (stereo not drawn) [Compound 32, EXO 2-Aza-6-(4-((4-trifluoromethylphenyl)methoxy)-1,2,5-thiadiaz-3-yl)-bicyclo[2.2.2]octane] the figure was 6.47.
On the same count and under the same terms, with `FC(F)(F)c1ccc(COc2nsnc2C2CC3CCC2NC3)cc1` (stereo not drawn) [Compound 33, EXO 2-Aza-6-(4-((4-trifluoromethylphenyl)methoxy)-1,2,5-thiadiaz-3-yl)-bicyclo[2.2.2]octane] the figure was 6.68.
